Experimental data reported in US11739101B2, “Bifunctional degraders of hematopoietic progenitor kinase and therapeutic uses thereof” (Nurix Therapeutics, Inc., priority 2020, dated 2023).

What follows are compounds tested against T1, HPK1 (Homo sapiens, UniProt Q92918) (assay: HPK1 Cellular HiBiT Degradation Assay). Settings: HiBiT-tagged HPK1 Jurkat cells, 24 hours, 10 uM to 0.1 nM; Dmax = 100 minus lowest % HPK1 remaining vs DMSO vehicle.
T1 construct: A HiBiT tag was introduced by CRISPR on the N terminus of HPK1 in Jurkat cells; host or cells: Jurkat (ATCC TIB-152), monoclonal CRISPR HiBiT knock-in line
Assay type: cell-based
How it was run: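 Jurkat cells with CRISPR N-terminal HiBiT-tagged HPK1 were exposed to an 11-point 3.16-fold dilution series, 10 uM to 0.1 nM final, for 24 hours at 37° C./5% CO2. HPK1 was read by HiBiT lytic luminescence against DMSO as 100% and parental cells as background. Dmax is 100 minus the lowest % remaining from a four-parameter fit, with a parallel CellTiter-Glo viability check.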

T1 sequence (Q92918 whole entry): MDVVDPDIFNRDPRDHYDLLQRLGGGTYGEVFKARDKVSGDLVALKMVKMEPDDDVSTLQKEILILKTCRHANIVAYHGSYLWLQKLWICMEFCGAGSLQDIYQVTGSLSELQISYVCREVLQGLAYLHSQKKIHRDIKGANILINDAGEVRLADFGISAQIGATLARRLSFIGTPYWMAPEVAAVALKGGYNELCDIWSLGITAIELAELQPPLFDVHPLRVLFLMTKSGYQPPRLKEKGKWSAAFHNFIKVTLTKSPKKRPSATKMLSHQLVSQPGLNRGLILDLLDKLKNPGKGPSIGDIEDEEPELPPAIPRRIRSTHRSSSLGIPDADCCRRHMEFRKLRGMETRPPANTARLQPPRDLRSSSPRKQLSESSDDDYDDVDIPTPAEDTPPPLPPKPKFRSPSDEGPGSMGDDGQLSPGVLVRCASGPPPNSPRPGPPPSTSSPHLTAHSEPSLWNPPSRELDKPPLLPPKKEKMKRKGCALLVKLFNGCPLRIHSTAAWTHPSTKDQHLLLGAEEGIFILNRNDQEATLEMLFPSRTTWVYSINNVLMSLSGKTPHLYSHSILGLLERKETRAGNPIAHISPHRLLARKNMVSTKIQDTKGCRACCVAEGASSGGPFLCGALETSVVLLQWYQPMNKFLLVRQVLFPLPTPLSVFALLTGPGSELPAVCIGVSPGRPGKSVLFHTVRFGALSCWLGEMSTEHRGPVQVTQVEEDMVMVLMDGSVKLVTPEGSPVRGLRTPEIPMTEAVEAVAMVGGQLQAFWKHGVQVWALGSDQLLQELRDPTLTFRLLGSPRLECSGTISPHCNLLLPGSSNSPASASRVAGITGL

| Dmax | Structure (SMILES) |
| --- | --- |
| 45 to 65% | Cc1cc(F)c(Nc2nc(-c3ccc4c(c3)N([C@H]3C[C@@H](N5CCCCC5)C3)C(=O)C43CCN(C(=O)CCC4CCCN(CC(=O)NC(C(=O)N5C[C@H](O)C[C@H]5C(=O)N[C@@H](C)c5ccc(-c6scnc6C)cc5)C(C)(C)C)C4)CC3)cc3ncn(C(C)C)c23)cc1C(=O)NC(C)C (stereo partly drawn) [Example 48, (2S,4R)-1-((2S)-2-(2-(3-(3-(6-(4-((2-fluoro-5-(isopropylcarbamoyl)-4-methylphenyl)amino)-3-isopropyl-3H-imidazo[4,5-c]pyridin-6-yl)-2-oxo-1-((1s,3s)-3-(piperidin-1-yl)cyclobutyl)spiro[indoline-3,4′-piperidin]-1′-yl)-3-oxopropyl)piperidin-1-yl)acetamido)-3,3-dimethylbutanoyl)-4-hydroxy-N—((S)-1-(4-(4-methylthiazol-5-yl)phenyl)ethyl)pyrrolidine-2-carboxamide] |
| < 45% | Cc1cc(F)c(Nc2nc(-c3ccc4c(c3)N([C@H]3C[C@@H](N5CCCCC5)C3)C(=O)C43CCN(C(=O)C[C@H]4CCN(C(=O)[C@H]5CC[C@H](Nc6cccc7c6C(=O)N(C6CCC(=O)NC6=O)C7=O)CC5)C4)CC3)cc3ncn(C(C)C)c23)cc1C(=O)NC(C)C (stereo partly drawn) [Example 57, 4-fluoro-2-methyl-5-{[6-(2-oxo-1′-{2-[(3R)-1-[(1R,4R)-4-({2-[2,6-dioxopiperidin-3-yl]-1,3-dioxo-2,3-dihydro-1H-isoindol-4-yl}amino)cyclohexanecarbonyl]pyrrolidin-3-yl]acetyl}-1-[(1s,3s)-3-(piperidin-1-yl)cyclobutyl]-1,2-dihydrospiro[indole-3,4′-piperidin]-6-yl)-3-(propan-2-yl)-3H-imidazo[4,5-c]pyridin-4-yl]amino}-N-(propan-2-yl)benzamide] |
| 45 to 65% | Cc1cc(F)c(Nc2nc(-c3ccc4c(c3)N([C@H]3C[C@@H](N5CCCCC5)C3)C(=O)C43CCN(C(=O)[C@H]4CC[C@@H](C(=O)N5CCN(c6ccc7c(c6)C(=O)N(C6CCC(=O)NC6=O)C7=O)CC5)CC4)CC3)cc3ncn(C(C)C)c23)cc1C(=O)NC(C)C (stereo partly drawn) [Example 79, 5-((6-(1′-((1s,4S)-4-(4-(2-(2,6-dioxopiperidin-3-yl)-1,3-dioxoisoindolin-5-yl)piperazine-1-carbonyl)cyclohexane-1-carbonyl)-2-oxo-1-((1s,3s)-3-(piperidin-1-yl)cyclobutyl)spiro[indoline-3,4′-piperidin]-6-yl)-3-isopropyl-3H-imidazo[4,5-c]pyridin-4-yl)amino)-4-fluoro-N-isopropyl-2-methylbenzamide] |
| 45 to 65% | Cc1cc(F)c(Nc2nc(-c3ccc4c(c3)N([C@H]3C[C@@H](N5CCCCC5)C3)C(=O)C43CCN(C(=O)CN4CCC5(CC4)CC(C(=O)NCCNc4cccc6c4C(=O)N(C4CCC(=O)NC4=O)C6=O)C5)CC3)cc3ncn(C(C)C)c23)cc1C(=O)NC(C)C (stereo partly drawn) [Example 46, N-(2-((2-(2,6-dioxopiperidin-3-yl)-1,3-dioxoisoindolin-4-yl)amino)ethyl)-7-(2-(6-(4-((2-fluoro-5-(isopropylcarbamoyl)-4-methylphenyl)amino)-3-isopropyl-3H-imidazo[4,5-c]pyridin-6-yl)-2-oxo-1-((1s,3s)-3-(piperidin-1-yl)cyclobutyl)spiro[indoline-3,4′-piperidin]-1′-yl)-2-oxoethyl)-7-azaspiro[3.5]nonane-2-carboxamide] |
| 45 to 65% | Cc1cc(F)c(Nc2nc(-c3ccc4c(c3)N([C@H]3C[C@@H](N5CCCCC5)C3)C(=O)C43CCN(C(=O)C[C@H]4CC[C@H](Nc5cccc6c5C(=O)N(C5CCC(=O)NC5=O)C6=O)CC4)CC3)cc3ncn(C(C)C)c23)cc1C(=O)NC(C)C (stereo partly drawn) [Example 80, 5-((6-(1′-(2-((1R,4R)-4-((2-(2,6-dioxopiperidin-3-yl)-1,3-dioxoisoindolin-4-yl)amino)cyclohexyl)acetyl)-2-oxo-1-((1s,3s)-3-(piperidin-1-yl)cyclobutyl)spiro[indoline-3,4′-piperidin]-6-yl)-3-isopropyl-3H-imidazo[4,5-c]pyridin-4-yl)amino)-4-fluoro-N-isopropyl-2-methylbenzamide] |

Second part, the compound before the results:

| Structure (SMILES) | Dmax |
| --- | --- |
| Cc1cc(F)c(Nc2nc(-c3ccc4c(c3)N([C@H]3C[C@@H](N5CCCCC5)C3)C(=O)C43CCN(C(=O)CCCCCCCCCOc4cc(-c5scnc5C)ccc4CNC(=O)[C@@H]4C[C@@H](O)CN4C(=O)[C@@H](NC(=O)C4(F)CC4)C(C)(C)C)CC3)cc3ncn(C(C)C)c23)cc1C(=O)NC(C)C [Example 6, (2S,4R)—N-(2-((10-(6-(4-((2-fluoro-5-(isopropylcarbamoyl)-4-methylphenyl)amino)-3-isopropyl-3H-imidazo[4,5-c]pyridin-6-yl)-2-oxo-1-((1s,3s)-3-(piperidin-1-yl)cyclobutyl)spiro[indoline-3,4′-piperidin]-1′-yl)-10-oxodecyl)oxy)-4-(4-methylthiazol-5-yl)benzyl)-1-((S)-2-(1-fluorocyclopropane-1-carboxamido)-3,3-dimethylbutanoyl)-4-hydroxypyrrolidine-2-carboxamide] | < 45% |
| Cc1cc(F)c(Nc2nc(-c3ccc4c(c3)N([C@H]3C[C@@H](N5CCCCC5)C3)C(=O)C43CCN(C(=O)C4CN(C(=O)CC5CCN(c6cccc7c6C(=O)N(C6CCC(=O)NC6=O)C7=O)CC5)C4)CC3)cc3ncn(C(C)C)c23)cc1C(=O)NC(C)C (stereo partly drawn) [Example 34, 5-{[6-(1′-{1-[2-(1-{2-[2,6-dioxopiperidin-3-yl]-1,3-dioxo-2,3-dihydro-1H-isoindol-4-yl}piperidin-4-yl)acetyl]azetidine-3-carbonyl}-2-oxo-1-[(1s,3s)-3-(piperidin-1-yl)cyclobutyl]-1,2-dihydrospiro[indole-3,4′-piperidin]-6-yl)-3-(propan-2-yl)-3H-imidazo[4,5-c]pyridin-4-yl]amino}-4-fluoro-2-methyl-N-(propan-2-yl)benzamide] | < 45% |
| Cc1cc(F)c(Nc2nc(-c3ccc4c(c3)N([C@H]3C[C@@H](N5CCCCC5)C3)C(=O)C43CCN(C(=O)CN4CCN(CC(=O)N[C@H](C(=O)N5C[C@H](O)C[C@H]5C(=O)N[C@@H](C)c5ccc(-c6scnc6C)cc5)C(C)(C)C)CC4)CC3)cc3ncn(C(C)C)c23)cc1C(=O)NC(C)C [Example 18, (2S,4R)-1-((S)-2-(2-(4-(2-(6-(4-((2-fluoro-5-(isopropylcarbamoyl)-4-methylphenyl)amino)-3-isopropyl-3H-imidazo[4,5-c]pyridin-6-yl)-2-oxo-1-((1s,3s)-3-(piperidin-1-yl)cyclobutyl)spiro[indoline-3,4′-piperidin]-1′-yl)-2-oxoethyl)piperazin-1-yl)acetamido)-3,3-dimethylbutanoyl)-4-hydroxy-N—((S)-1-(4-(4-methylthiazol-5-yl)phenyl)ethyl)pyrrolidine-2-carboxamide] | 45 to 65% |
| Cc1cc(F)c(Nc2nc(-c3ccc4c(c3)N([C@H]3C[C@@H](N5CCCCC5)C3)C(=O)C43CCN(C(=O)CC4CCCN(CC5CCN(c6cccc7c6C(=O)N(C6CCC(=O)NC6=O)C7=O)C5)C4)CC3)cc3ncn(C(C)C)c23)cc1C(=O)NC(C)C (stereo partly drawn) [Example 31, 5-{[6-(1′-{2-[(3S)-1-{[1-{2-[2,6-dioxopiperidin-3-yl]-1,3-dioxo-2,3-dihydro-1H-isoindol-4-yl}pyrrolidin-3-yl]methyl}piperidin-3-yl]acetyl}-2-oxo-1-[(1s,3s)-3-(piperidin-1-yl)cyclobutyl]-1,2-dihydrospiro[indole-3,4′-piperidin]-6-yl)-3-(propan-2-yl)-3H-imidazo[4,5-c]pyridin-4-yl]amino}-4-fluoro-2-methyl-N-(propan-2-yl)benzamide] | > 65% |
| Cc1cc(F)c(Nc2nc(-c3ccc4c(c3)N(C3CC(N5CCCCC5)C3)C(=O)C43CCN(C(=O)CCOCCOCCOCCNc4ccc5c(c4)C(=O)N(C4CCC(=O)NC4=O)C5=O)CC3)cc3ncn(C(C)C)c23)cc1C(=O)NC(C)C (stereo not drawn) [Example 5, 5-((6-(1′-(3-(2-(2-(2-((2-(2,6-dioxopiperidin-3-yl)-1,3-dioxoisoindolin-5-yl)amino)ethoxy)ethoxy)ethoxy)propanoyl)-2-oxo-1-((1s,3s)-3-(piperidin-1-yl)cyclobutyl)spiro[indoline-3,4′-piperidin]-6-yl)-3-isopropyl-3H-imidazo[4,5-c]pyridin-4-yl)amino)-4-fluoro-N-isopropyl-2-methylbenzamide] | < 45% |
| Cc1cc(F)c(Nc2nc(-c3ccc4c(c3)N([C@H]3C[C@@H](N5CCCCC5)C3)C(=O)C43CCN(C(=O)C4CCN(CC5CCN(c6cccc7c6C(=O)N(C6CCC(=O)NC6=O)C7=O)CC5)C4)CC3)cc3ncn(C(C)C)c23)cc1C(=O)NC(C)C (stereo partly drawn) [Example 38, 5-[(6-{1′-[1-[(1-{2-[2,6-dioxopiperidin-3-yl]-1,3-dioxo-2,3-dihydro-1H-isoindol-4-yl}piperidin-4-yl)methyl]pyrrolidine-3-carbonyl]-2-oxo-1-[(1s,3s)-3-(piperidin-1-yl)cyclobutyl]-1,2-dihydrospiro[indole-3,4′-piperidin]-6-yl}-3-(propan-2-yl)-3H-imidazo[4,5-c]pyridin-4-yl)amino]-4-fluoro-2-methyl-N-(propan-2-yl)benzamide] | > 65% |
| Cc1cc(F)c(Nc2nc(-c3ccc4c(c3)N([C@H]3C[C@@H](N5CCCCC5)C3)C(=O)C43CCN(C(=O)C4CCN(C(=O)C5CCC(Nc6cccc7c6C(=O)N(C6CCC(=O)NC6=O)C7=O)CC5)C4)CC3)cc3ncn(C(C)C)c23)cc1C(=O)NC(C)C (stereo partly drawn) [Example 26, 4-fluoro-2-methyl-5-[(6-{2-oxo-1′-[1-[(1R,4R)-4-({2-[2,6-dioxopiperidin-3-yl]-1,3-dioxo-2,3-dihydro-1H-isoindol-4-yl}amino)cyclohexanecarbonyl]pyrrolidine-3-carbonyl]-1-[(1s,3s)-3-(piperidin-1-yl)cyclobutyl]-1,2-dihydrospiro[indole-3,4′-piperidin]-6-yl}-3-(propan-2-yl)-3H-imidazo[4,5-c]pyridin-4-yl)amino]-N-(propan-2-yl)benzamide] | 45 to 65% |
